We go through 8 compounds from US6946259B2, “Compositions and methods for treating cells having double minute DNA” (The Salk Institute For Biological Studies, priority 1998, dated 2005).

“Also recorded” adds a separate entry of the source. Structures can show the parent of a compound that is named as a salt.

The test system of assay [1] is WS1 E6 cells. Put plainly: Frequency of micronuclei (DAPI) in WS1 E6 fibroblasts. The settings on record: WS1 fibroblasts expressing E6, drug for 3 days. The class given is cell-based, human. The procedure:
(§1) Wild type (wt) WS1 human diploid fibroblasts, or transformants expressing the neomycin resistance gene (neo) or both neo and the human papilloma virus E6 protein (E6) were generated by retroviral transduction. These cells were cultured in the absence or the presence of HU or PALA at the indicated concentrations for 3 days. […] The number of micronuclei were scored and expressed as the frequency of micronuclei (%) relative to the number of interphase nuclei scored (more than 1000 for each point). In FIG. 7B, cell cycle effects of these drugs were examined as in FIG. 2B. […] In FIG. 7C, progression through S-phase or M-phase was monitored by the incorporation of [^3H]thymidine (closed symbols) or the fraction of mitotic cells determined by microscopic detection of metaphase figures (open symbols). In FIG. 7D, the cells on the cover slips were fixed, stained with DAPI, and the frequencies of micronuclei relative to the number of interphase nuclei were scored. More than 500 nuclei were counted for each point and the results are expressed as mean±S.D for WS1 neo and WS1-E6 cells (3 independent determinations for each strain; the error bars for WS1 neo data points were smaller than the sizes of the symbols). Nuclear budding frequencies were determined on the same slides as used to determine micronucleation index (more than 1000 nuclei for each point). […]

In assay [2] the test system is COLO 320DM cells. Put plainly: DM content per cell by competitive PCR amplification. The class given is cell-based, human. Particulars: HU treatment, data not shown.
In assay [3] the test system is human and rodent cell lines. Particulars: cited from earlier work.
The test system of assay [4] is WS1 human diploid fibroblasts. Put plainly: Cell cycle distribution of WS1 fibroblasts by flow cytometry. The class given is cell-based. Particulars: WS1 cells, drug for 3 days. The procedure:
as §1

The test system of assay [5] is COLO 320DM cells. The assay can be described thus: Quantification of c-myc+ (DM-containing) micronuclei in COLO 320DM cells by FISH. The class given is cell-based, human. Particulars: for micronucleation (frequency of c-myc+ micronuclei): COLO 320DM cells treated for 3 days; for micronucleation efficiency at concentrations that severely inhibited S-phase: COLO 320DM cells, 3 days, high drug concentrations. The procedure: (§2) FIGS. 3A and 3B show the effects of various drugs on induction of micronuclei and cell cycle distribution. COLO 320DM cells were treated for 3 days with inhibitors of DNA replication (aphidicolin (“APH”); deferoxamine (“Def”), guanazole (“Gua”); hydroxurea (“HU”); and PALA), repair (coumarin (“Cou”); nicotinamide (“NA”)) or the membrane active agent DMSO at the concentrations indicated. In FIG. 3A, the treated cells were fixed with methanol/acetic acid and hybridized with c-myc cosmid probe. The numbers of micronuclei that were stained brightly with c-myc probe were scored and expressed as “frequency of c-myc^+ micronuclei (%)” relative to the number of interphase nuclei scored (more than 1000 for each point). In FIG. 3B, the cells were pulse-labeled with BrdU (for 30 min) at the end of the drug treatment, and analyzed by flow cytometry as described below to determine the fraction of cells in G1, S, and G2/M.
Micronuclei containing DM sequences in COLO 320DM cells (FIGS. 2 and 3) were detected by preparing chromosome spreads using standard hypotonic swelling conditions (Lawce and Brown (1991)), followed by hybridization with a biotinylated c-myc cosmid probe as described previously (Shimizu, et al. (1996)). Total micronuclei (FIG. 3) were determined by staining chromosome spreads with DAPI (Sigma; 1 μg/ml in VectaShield, Vector Inc.). The adherent cells (WS1, RPE-h and their derivatives) were grown on cover slips, fixed with cold acetone (−20° C. for 5 min) followed by cold methanol (−20° C. for 5 min), re-hydrated with PBS and stained with DAPI (1 μg/ml in VectaShield). The numbers of total or DM-enriched micronuclei were scored using 60× or 100× objectives and Zeiss fluorescence microscope equipped with appropriate epifluorescence filters. The results are expressed as “Frequency of micronuclei (%)” relative to the number of interphase nuclei scored (at least 1000 for each point).

Assay [6] deals with COLO 320DM cells. Put plainly: Localization of DMs in interphase nuclei by FISH and confocal microscopy. The class given is cell-based, human. Particulars: 100 μM HU for 3 days. As for the experimental part: Preparation of probe from purified micronuclei was as described (Shimizu, et al. (1996)), except that DNA in the purified micronuclei was directly used for biotin-labeling by using BioPrime DNA Labeling System (Life Technologies Inc. Gaithersburg, Md.). FISH using standard methanol/acetic acid-fixed nuclei was performed as described previously (Shimizu, et al. (1996)). Assessments of DM localization by confocal microscopy required the following procedure to preserve the spherical shape of the nuclei. This protocol, based on that developed for human lymphocytes (Ferguson and Ward (1992) and Vourc'h, et al. (1993)), could not be applied directly to COLO 320DM due to severe nuclear aggregation. The modified procedure involves pelleting 10 ml of COLO 320DM cells by centrifugation at 260×g for 5 min, followed by complete removal of the supernatant. […] The acquired digital images were expressed as pseudocolors, and merged using Adobe Photoshop (Adobe Systems Inc., Mountain View, Calif.).
The locations of DMs in confocal nuclear sections were determined by measuring the distance from each of the hybridized signals to the center of the nucleus using the corresponding nuclear diameter as a unit length. […] The distances from this dot to the center of the nucleus and the nuclear diameter were determined. […] At the same time, the intensity of each signal was measured using an arbitrary unit scale. […]

Assay [7] has as its system COLO 320DM cells. Put plainly: Apoptosis in COLO 320DM cells (TUNEL assay). The class given is cell-based, human. The settings on record: COLO 320DM cultures, prolonged incubation. As for the experimental part:
TUNEL assay was done according to a previously published procedure (Gavrieli, et al. (1992)) and modified as described below. In brief, COLO 320DM cells were fixed in 2% PFA (10 min at room temperature), and centrifuged onto a glass slide using a cytospin apparatus. The cells were further fixed in cold methanol (−20° C., 5 min) followed by cold acetone (−20° C., 5 min). The slides were rehydrated in PBS, then equilibrated in reaction buffer (200 mM sodium cacodylate, 1 mM MgCl2, 1 mM β-mercaptoethanol, pH 7.2) for 15 min at room temperature. The end-labeling reaction was done by incubating the slides with the reaction buffer containing 10 μM biotin-dUTP (Boehringer Mannheim GmbH, Germany), and 0.3 units/μl of terminal deoxynucleotidyl transferase (Toyobo Co., Osaka, Japan), for 60 min at 37° C. The slides were washed extensively, blocked with 20% FCS, and the incorporated biotin was detected using FITC conjugated streptavidin as in the protocol for FISH (see below). The slides were treated with RNAse A (100 μg/ml 37° C., for 20 min), counterstained with PI, and observed under the conditions used for FISH.

Assay [8] relates to WS1 human diploid fibroblasts. The assay can be described thus: Frequency of micronuclei (DAPI) in WS1 normal diploid fibroblasts. The class given is cell-based. The settings on record: WS1 cells, drug for 3 days. As for the experimental part: as §1
For assay [9], the system named is WS1 E6 cells. Put plainly: Cell cycle distribution of WS1 E6 fibroblasts by flow cytometry. The class given is cell-based, human. The settings on record: WS1 fibroblasts expressing E6, drug for 3 days. As for the experimental part: as §1
The subject of assay [10] is COLO 320DM cells. Put plainly: Cell cycle distribution of COLO 320DM cells by BrdU/PI flow cytometry. Particulars: COLO 320DM cells treated for 3 days. In kind it is cell-based, human. The procedure:
as §2
Cell cycle distribution was analyzed using flow cytometry as described previously (Yin, et al. (1992) and Di Leonardo, et al. (1994)). Cells treated with the indicated concentrations of drugs for the indicated times were labeled with 10 μM BrdU for 30 min. […] Samples were analyzed using a Becton Dickinson FACScan. […] Data was analyzed using Sun Display as described previously (Yin, et al. (1992) and Di Leonardo, et al. (1994)).

Turning to `NC(=O)NO` [HU, hydroxyurea], the micronucleation rate entry is given as “substantial further increase in micronucleation rate” with WS1 E6 cells [1] and “not increased” in assay [8]. Moreover, the “reduction of DM content per cell” value in the assay on COLO 320DM cells [2] was “approximately 3 fold”. The “loss rate of DMs” value in assay [3] (human and rodent cell lines) is “significantly increase the loss rate of DMs”. In addition, the cell cycle effect entry in [4] is “did not significantly affect the percentage of WS1 cells in S-phase”. Moreover, the “micronucleation (frequency of c-myc+ micronuclei)” value in the assay with COLO 320DM cells [5] is recorded as “substantial increases in micronucleation”. In the assay on COLO 320DM cells [6], the “nuclear position of DMs (peripheral localization)” value is given as “preferentially depleted DMs from the nuclear periphery; also recorded: Very few peripheral DMs were detected”. Further, the apoptosis entry in the assay with COLO 320DM cells [7] is listed as “apoptotic cells did arise”. In addition, in the assay with WS1 E6 cells [9], the “number of cells in S-phase” value is “significant increase in the number of cells in S-phase”.

For the compound `Nc1n[nH]c(N)n1` [guanazole, 3,5-diamino-1,2,4-triazole], the “micronucleation (frequency of c-myc+ micronuclei)” value with COLO 320DM cells [5] is “substantial increases in micronucleation”.

Consider `O=c1ccc2ccccc2o1` [Coumarin, 1,2-benzopyrone], for which, in the assay on COLO 320DM cells [5], the “micronucleation (frequency of c-myc+ micronuclei)” value is “no effect on micronucleation”.

`NC(=O)c1cccnc1` [nicotinamide]: the “micronucleation (frequency of c-myc+ micronuclei)” value in the assay with COLO 320DM cells [5] is on record as “small increase”. Besides, the “cell cycle distribution (fraction of cells in G1, S, G2/M)” value in the assay with COLO 320DM cells [10] is given as “significant increase in the G2 fraction”.

On to `O=C(O)C[C@H](NC(=O)CP(=O)(O)O)C(=O)O` [PALA, N-phosphonacetyl-L-aspartate], for which the micronucleation rate entry in the assay with WS1 E6 cells [1] is listed as “substantial further increase in micronucleation rate”. For the same compound, the cell cycle effect entry in [4] is “induced a G1 cell cycle arrest”. Also, in the assay on COLO 320DM cells [5], the “micronucleation (frequency of c-myc+ micronuclei)” value was “substantial increases in micronucleation; also recorded: induces S-phase micronucleation” and the “micronucleation efficiency at concentrations that severely inhibited S-phase” value is “sharp decrease in micronucleation efficiency”. Besides, in assay [8], the micronucleation rate result is listed as “not increased”. Moreover, the “number of cells in S-phase” value with WS1 E6 cells [9] is recorded as “significant increase in the number of cells in S-phase”.

For `CC(=O)N(O)CCCCCNC(=O)CCC(=O)N(O)CCCCCNC(=O)CCC(=O)N(O)CCCCCN` [deferoxamine, deferoxamine mesylate], in the assay on COLO 320DM cells [5], the “micronucleation (frequency of c-myc+ micronuclei)” value is listed as “substantial increases in micronucleation” and the “micronucleation efficiency at concentrations that severely inhibited S-phase” value is “sharp decrease in micronucleation efficiency”.

Take `C[S+](C)[O-]` [DMSO]: the DM copy number entry in [3] (some tumor cell lines) is “reduce DM copy number”. Also, the “micronucleation (frequency of c-myc+ micronuclei)” value in the assay with COLO 320DM cells [5] is listed as “increased micronucleation”. Further, the “cell cycle distribution (fraction of cells in G1, S, G2/M)” value with COLO 320DM cells [10] is on record as “without lengthening S-phase”.

Regarding `C[C@@]1(CO)[C@H](O)CC[C@@]2(C)[C@H]1CC[C@H]1C[C@@H]3C[C@@]12CC[C@]3(O)CO` [aphidicolin, Aphidicolin], the “micronucleation (frequency of c-myc+ micronuclei)” value with COLO 320DM cells [5] is “substantial increases in micronucleation”.
